{"source": "paper PMC10419416", "about": "“Fighting Pseudomonas aeruginosa Infections: Antibacterial and Antibiofilm Activity of D-Q53 CecB, a Synthetic Analog of a Silkworm Natural Cecropin B Variant” (International Journal of Molecular Sciences, 2023)", "key": {"[1]": {"tested_on": "T1, human neutrophil elastase", "T1 construct": "purchased Merck", "test": "Enzymatic digestion with human neutrophil elastase, RP-HPLC", "format": "in vitro ADME", "details": "human, isolated enzyme elastase, pH 7.5", "protocol": "(§1) L- and D-Q53 CecB peptides, as well as the human LL-37 peptide (Merck, Burlington, MA, USA), were dissolved in 10 mM Tris-HCl, pH 7.5, at a final concentration of 1 mg/mL. Subsequently, 120 μL of each peptide solution were incubated at 37 °C with 20 U of human leukocyte elastase (Merck) or P. aeruginosa elastase (Elastin Products Company, Owensville, MO, USA) and 5 μL of 10 mM Tris-HCl, pH 7.5. At given time intervals (30, 60, 120, and 300 min), a volume corresponding to 30 μg of each peptide was diluted in 70 μL of 1% trifluoroacetic acid (TFA) to stop the reaction. Peptide suspensions,v without any enzyme (undigested controls), were processed in parallel. Each solution was analyzed by RP-HPLC, using a Phenomenex LC C18 analytical column (300 Å, […], 250 × 4.6 mm; Phenomenex, Torrance, CA, USA) and a Widepore C18 security guard cartridge (4 × 3.0 mm; Phenomenex, Torrance, CA, USA), in a 30 min-linear Acetonitrile (ACN) gradient (from 0% to 40% for L- and D-Q53 CecB peptides; from 20% to 60% for LL-37). A Waters Alliance 2695 Separations Module connected to a 996 PDA (Waters, Milford, MA, USA) was employed for RP-HPLC."}, "P. aeruginosa elastase": {"tested_on": "T2, P. aeruginosa elastase", "T2 construct": "purchased Elastin Products Company", "test": "Enzymatic digestion with P. aeruginosa elastase, RP-HPLC", "format": "in vitro ADME", "details": "isolated enzyme elastase; peptide 1 mg/mL in 10 mM Tris-HCl pH 7.5, 20 U P. aeruginosa elastase, 37 °C, 30 min, RP-HPLC C18 peak integration; read-out: % of full-length peptide", "protocol": "as §1"}, "[2]": {"tested_on": "P. aeruginosa ATCC 27853 and ATCC 25668 strains", "test": "microbe, parasite or virus in culture", "format": "cell-based, Pseudomonas aeruginosa", "details": "ATCC 27853, 24 h", "protocol": "The following strains were used: P. aeruginosa ATCC 27853, ATCC 25668, and PAO1-L (Lausanne subline). All strains were grown at 37 °C in Luria Bertani (LB) medium or in Luria Bertani Agar (LBA) plates.\nThe antibacterial activities of L- and D-Q53 CecB were evaluated by determining (i) the MIC and (ii) the MBC. Tobramycin (Merck) was used as an antibiotic control. (i) An overnight (ON) bacterial culture was diluted to 1 × 10^6 cells/mL in LB medium. 50 µL/well were seeded in sterile polypropylene 96-well plates (Corning, Corning, NY, USA) and added with 50 µL LB medium, containing serial dilutions of each compound (final concentrations of L- and D-Q53 CecB peptides from 1.1 to 35.2 µM; final concentrations of tobramycin from 0.26 to 17 μM; each condition in triplicate). Microbial suspensions in the growing medium (positive control) and wells with only the medium (negative controls) were processed in parallel. Plates were incubated 24 h at 37 °C with agitation (300 rpm), and the absorbance was measured at 600 nm in a microplate reader. The MIC was considered as the lowest concentration determining a delta optical density at 600 nm (ΔOD600) equal to 0 ± 0.05. The ΔOD600 was determined by subtracting the OD600 recorded at time 0 from that obtained after 24 h. Each experiment was performed at least three times. […] For each sample, 100 μL of 1:10, 1:100, and 1:1000 dilutions were plated on LBA plates, and colonies were counted after 24 h at 37 °C. […] Each experiment was performed at least twice."}, "P. aeruginosa ATCC 27853": {"tested_on": "P. aeruginosa ATCC 27853", "test": "CFU assay of medium over treated 24 h old biofilm", "format": "cell-based, Pseudomonas aeruginosa", "details": "for mean CFUs/mL decrement vs untreated control: 1 MIC, 1 h; for living bacterial cells in the medium, Mean ± SEM: 1 h treatment of 24 h-old biofilm with 1 MIC (2.2 μM), four experiments, control 3.06 ± 2.07 × 10^14"}, "[3]": {"tested_on": "P. aeruginosa biofilms (ATCC 25668)", "test": "Confocal microscopy of pre-formed biofilm, thickness", "format": "cell-based, Pseudomonas aeruginosa", "details": "1 h treatment with 1 MIC (2.2 μM) of 24 h old biofilm; 6-8 confocal fields", "protocol": "Bacteria cells (1 × 10^6 cells/mL) were grown in Permanox four-wells chamber slide systems (1.8 cm^2/well; Nunc® Lab-Tek® Chamber SlideTM system) at 37 °C for 24 h without agitation to allow biofilm formation. […] Negative controls, treated with LB only, were followed in parallel. […] After each staining, samples were washed twice with PBS. After washing, samples were fixed in 4% Paraformaldehyde, mounted in VECTASHIELD® mounting medium (Vector Laboratories, Newark, CA, USA), and observed using a Zeyss LSM 900 Airyscan 2 confocal microscope and a ×63 oil immersion objective. Optical sections (Z-series) were taken at 0.2 μm intervals. Experiments were performed four times (one-two replicates per condition). […] EPS was visualized using a 405 nm wavelength for excitation and 413-480 nm for emission (blue); to detect proteins or Propidium Iodide (red), a 543 nm wavelength for excitation and 590-610 nm for emission were used. Post-acquisition analyses were performed with Fiji (http://fiji.sc/wiki/index.php, downloaded on 4 April 2022). Cross-section views (x-z and y-z planes were obtained with the “Orthogonal View” plugin. To evaluate live and dead cells, images of single 0.13 μm slices taken in the upper part of the biofilm (i.e., in contact with the peptide during treatment) were processed using the “Counting Objects” plugin, and the same threshold level for red and green colors."}, "trypsin": {"tested_on": "trypsin", "details": "cited from earlier work", "from_the_text": "Recently, we characterized Q53 CecB, a natural CecB variant derived from the silkworm Bombyx mori. […] Additionally, Q53 CecB maintains an anti-Pseudomonas activity at a high saline concent ..."}, "[4]": {"tested_on": "linearized DNA (pIVEX 2.3d plasmid)", "test": "Gel retardation assay, in vitro interaction with DNA", "format": "binding", "details": "100 ng DNA, 100-500 ng peptide, RT 1 h, 1% agarose gel; all tested conditions; three experiments", "protocol": "One hundred ng of linearized DNA (pIVEX 2.3d plasmid) were incubated with increasing concentrations of the L- or D-peptides (0, 100, 150, 175, 200, 250, 275, 300, 350, 400, 450, 500 ng) at RT for 1 h. Samples were run into a 1% agarose gel in TAE buffer at 50 V and visualized in a Gel Doc X3+ (Biorad, Hercules, CA, USA). DNA band intensities were measured using the Image Lab software 6.1 (Biorad, Hercules, CA, USA). The band intensity reduction was calculated as the ratio between the band intensity in the presence of peptide over that of the untreated DNA. To compare the DNA binding activities of L- and D- peptides, for each peptide amount, we determined the ratio between the band intensity reduction with D-Q53 CecB and that with L-Q53 CecB. Three experiments have been performed."}}, "note": "Non-standard residues stand in square brackets, D forms with d. Residues, ends and D or L forms follow the SMILES beside them. No end group written: not given here."}
{"compound": "RWKIFKKIEKMGRNIRDGIVKAGPAIQVLGSAKAI-NH2 [L-Q53 CecB]", "values": [{"measurement": "remaining at 5 h, 1 mg/mL", "setting": "[1]", "result": 0.3, "unit": "%"}, {"measurement": "remaining at 0.5 h, 1 mg/mL", "setting": "P. aeruginosa elastase", "result": "~0.2", "unit": "%"}, {"measurement": "MBC", "setting": "[2]", "result": 11, "unit": "µM"}, {"measurement": "mean CFUs/mL decrement vs untreated control", "setting": "P. aeruginosa ATCC 27853", "result": "6 orders of magnitude"}, {"measurement": "living bacterial cells in the medium, Mean ± SEM", "setting": "P. aeruginosa ATCC 27853", "result": "7.03 ± 4.10 × 10^8 CFUs/mL"}, {"measurement": "reduction in biofilm thickness vs untreated controls", "setting": "[3]", "result": "did not significantly reduce biofilm thickness"}, {"measurement": "antibacterial activity after trypsin treatment", "setting": "trypsin", "result": "lost its antibacterial activity"}]}
{"compound": "CC[C@@H](C)[C@@H](NC(=O)[C@@H](C)NC(=O)[C@@H](CCCCN)NC(=O)[C@@H](C)NC(=O)[C@@H](CO)NC(=O)CNC(=O)[C@@H](CC(C)C)NC(=O)[C@H](NC(=O)[C@@H](CCC(N)=O)NC(=O)[C@H](NC(=O)[C@@H](C)NC(=O)[C@H]1CCCN1C(=O)CNC(=O)[C@@H](C)NC(=O)[C@@H](CCCCN)NC(=O)[C@H](NC(=O)[C@H](NC(=O)CNC(=O)[C@@H](CC(=O)O)NC(=O)[C@@H](CCCNC(=N)N)NC(=O)[C@H](NC(=O)[C@@H](CC(N)=O)NC(=O)[C@@H](CCCNC(=N)N)NC(=O)CNC(=O)[C@@H](CCSC)NC(=O)[C@@H](CCCCN)NC(=O)[C@@H](CCC(=O)O)NC(=O)[C@H](NC(=O)[C@@H](CCCCN)NC(=O)[C@@H](CCCCN)NC(=O)[C@@H](Cc1ccccc1)NC(=O)[C@H](NC(=O)[C@@H](CCCCN)NC(=O)[C@@H](Cc1c[nH]c2ccccc12)NC(=O)[C@H](N)CCCNC(=N)N)[C@H](C)CC)[C@H](C)CC)[C@H](C)CC)[C@H](C)CC)C(C)C)[C@H](C)CC)C(C)C)C(N)=O", "note": "[D-Q53 CecB] (H-[dR][dW][dK][dI][dF][dK][dK][dI][dE][dK][dM]G[dR][dN][dI][dR][dD]G[dI][dV][dK][dA]G[dP][dA][dI][dQ][dV][dL]G[dS][dA][dK][dA][dI]-NH2; N-terminus and C-terminus assumed)", "values": [{"measurement": "MBC", "setting": "[2]", "result": 4.40, "unit": "µM"}, {"measurement": "mean CFUs/mL decrement vs untreated control", "setting": "P. aeruginosa ATCC 27853", "result": "4 orders of magnitude"}, {"measurement": "living bacterial cells in the medium, Mean ± SEM", "setting": "P. aeruginosa ATCC 27853", "result": "1.07 ± 1.06 × 10^10 CFUs/mL"}, {"measurement": "ratio between the DNA band intensities for D- and L-Q53 CecB", "setting": "[4]", "result": "~ 1"}, {"measurement": "reduction in biofilm thickness vs untreated controls", "setting": "[3]", "result": "~ 77%"}]}
